We go through 2 compounds from patent publication US9944613B2, “Fumagillol spirocyclic compounds and fused bicyclic compounds and methods of making and using same” (Zafgen, Inc., priority 2015, dated 2018).

A value given as a limit tells only on which side of the number the result lay.

Data set [1] deals with Diet Induced Obese (DIO) C57BL/6 mice. As to the kind of experiment: 10 day DIO mouse model, weight loss vs. vehicle. The data set is classed as in vivo. Conditions: 240 h, 0.3 mpk sc once a day for 10 days.
The test system of data set [2] is rat DIO model (Sprague Dawley rats on high fat diet). As to the kind of experiment: 11 day rat DIO model, weight loss vs. vehicle. The data set is classed as in vivo. Conditions: Rattus norvegicus, 264 h, 0.3 mpk sc once a day for 11 days. From the text: The objective of this study design is to investigate the efficacy of disclosed compounds in an 11 day rat DIO model used to screen compounds for pharmacologic efficacy on endpoints related to obesity and metabolism. Effects on body weight, food intake, hematology and blood chemistries were the primary readouts of this study design. Male Sprague Dawley rats, approximately 8 weeks of age, were ordered from a certified vendor and housed on irradiated corncob bedding in micro-isolator cages, on a 12-hour light-dark cycle (0700-1900) at 68-74° F. and 30-70% humidity. Rats were fed Research Diets D12451 (45% High Fat) and provided water ad libitum. Rats were received and housed in the facility for at least two or three weeks prior to start of test article administration. On Day −4 or −3, rats were randomized into study groups based on body weight and body weights were continued to be recorded daily for the duration of the study. Daily food intake was assessed starting on Study Day −2 by weighing the hopper including the food to avoid loss of food in transfer.
Compounds were formulated into a 100% DMSO stock (at 9 mg/mL) prior to the start, and further diluted into the target working concentration using the vehicle of 10% DMSO in water. Prior to test article administration, starting on Day −3 a dosing acclimation occured with all animals receiving a subcutaneous injection of vehicle (10% DMSO) only for 3 days. Starting on Day 1, test compounds or vehicle were administered based on individual body weight, subcutaneously, once a day for 11 days. All animals were sacrificed on Day 11, approximately 2 hours following the final dosing on Day 11. After sacrifice, whole blood was collected and analyzed for hematology and blood chemistry parameters.
Compounds were tested for weight loss vs. vehicle at 0.3 and 1.0 mpk sc (mg per kg animal weight delivered subcutaneously), and the results are shown in Table 2 below.

In data set [3] the test system is human fibrosarcoma cell line HT-1080. Kind of data set: HT-1080 cell growth inhibition (CellTiter-Glo, 72 hours). The data set is classed as cell-based. Conditions: HT-1080 cells, 72 hours incubation. Here is the method: The human fibrosarcoma cell line HT-1080 were grown to almost complete confluence in T75 tissue culture flasks in preparation for the experiment. The cells were trypsinised and re-suspended in complete medium using DMEM plus 9% FBS including penicillin/streptomycin supplements. 500 cells in a total volume of 25 μl were seeded into black walled 384 well plates and returned to a CO2 incubator over-night. Compounds and standards were prepared at 333.3× actual test concentration in neat DMSO. 10 point dose response curves of test compounds were generated by 1:3 serial dilutions, 2 μl of DMSO stock was transferred to 109 μl complete medium. This was further diluted 1:6 in complete medium, with 5 μl of the resulting solution added to the incubated 384 well plate. […] For experimental blanks at the start of the experiment, CellTiter-Glo was added to a satellite plate of cells (identical to the experimental plate), when adding compounds on Day 1. The average of these wells is used as the blanks in the calculation template. […] Luminescence per well was determined using an EnVision 2104 Multilabel Reader (PerkinElmer) or other suitable reader. The compound blank value recorded on Day 1 is subtracted from all other data. […] The EC50 values are determined from a sigmoidal 4 parameter curve fit using XLfit in conjunction with Activity Base (IDBS; Guildford, Surrey, UK). […]

Data set [4] concerns pregnant Sprague Dawley rats (embryo/fetal development). As to the kind of experiment: Rat embryofetal development study. The data set is classed as in vivo. Conditions: 6 mpk subcutaneously once every three days, Gestation Days 6-18, pregnant rats. An excerpt: Study Summary Rat Embryofetal:
The objective of this study design was to evaluate the potential effects of disclosed compounds on embryo/fetal development when given subcutaneously to pregnant rats once every three days during the critical period of organogenesis (Gestation Days 6-18). Female, Sprague Dawley rats, approximately 10 weeks of age, time bred, were ordered from a certified vendor and housed individually housed in stainless steel cages suspended over flush pans, on a 12-hour light-dark cycle (0700-1900) at 20-26° C. and 30-70% humidity. Rats were fed a standard rodent chow and provided water ad libitum. Rats were received and housed in the facility for a period of approximately 1 to 2 days.
Compounds were formulated using 100% DMSO mixed in Sterile Water for Injection, resulting in 2% DMSO solution in water. If necessary, due to limited solubility of a test article, a higher percentage of DMSO solution in water was used. Groups of 8 mated and presumed pregnant female rats were given subcutaneous doses of vehicle or test article, once every three days, beginning on Gestation Day 6 and ending on Gestation Day 18 (Days 6, 9, 12, 15, and 18), maintained two more days, and then euthanized and necropsied on Gestation Day 20. Body weights was recorded for all animals on Gestation Days 5 (purpose of randomization), 6, 9, 12, 15, 18, and 20 (scheduled euthanasia). Food consumption by weight was recorded on Gestation Days 6, 9, 12, 15, 18, and 20 (scheduled termination).
At necropsy, the dams were examined visually for external abnormalities including palpable masses. The abdominal, thoracic, and cranial cavities and their contents were examined for abnormalities and findings will be recorded. The reproductive tract were examined to record the number of ovarian corpora lutea, the number and location of uterine implantation sites noting the position of the cervix, and the number of early resorptions, late resorptions, live fetuses, and dead fetuses. For dead fetuses and late resorptions, crown-to-rump length and weight were recorded, if possible, and the fetus was discarded. For viable fetuses, weight, sex, and grossly visible external abnormalities were recorded.

For a further data set, the target named is T1, recombinant human MetAP2 (Homo sapiens, UniProt P50579).
T1 construct: Flag; made in house
T1 sequence (P50579 whole entry): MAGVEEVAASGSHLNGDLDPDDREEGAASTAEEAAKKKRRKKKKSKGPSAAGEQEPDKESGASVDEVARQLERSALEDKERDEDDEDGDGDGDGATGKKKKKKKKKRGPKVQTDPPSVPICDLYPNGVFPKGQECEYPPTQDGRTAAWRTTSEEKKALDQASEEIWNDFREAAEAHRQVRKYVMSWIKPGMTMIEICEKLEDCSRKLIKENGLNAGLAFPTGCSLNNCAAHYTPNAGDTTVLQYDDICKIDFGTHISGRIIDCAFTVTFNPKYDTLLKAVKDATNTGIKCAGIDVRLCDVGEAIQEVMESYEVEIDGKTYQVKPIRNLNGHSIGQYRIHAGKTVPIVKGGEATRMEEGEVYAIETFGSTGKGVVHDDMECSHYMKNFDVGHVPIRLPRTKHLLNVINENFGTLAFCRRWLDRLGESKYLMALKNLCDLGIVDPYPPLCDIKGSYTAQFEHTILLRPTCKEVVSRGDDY
As to the kind of experiment: Inhibition of recombinant human MetAP2 activity (MAS peptide / amino acid oxidase / Amplex assay). The data set is classed as biochemical. As to conditions: Flag tagged human recombinant MetAP2, 25 minutes at 25° C.; read-out: MetAP2 IC50.

For `CO[C@@H]1[C@H](OC(=O)/C=C/c2ccc(OCCN(C)C)cc2)CC[C@]2(CO2)[C@H]1[C@@]1(C)O[C@@H]1CC=C(C)C` [compound A, [(3R,6R,7S,8S)-7-methoxy-8-[(2R,3R)-2-methyl-3-(3-methylbut-2-enyl)oxiran-2-yl]-2-oxaspiro[2.5]octan-6-yl] (E)-3-[4-[2-(dimethylamino)ethoxy]phenyl]prop-2-enoate, reference compound], the inhibition in vivo at 0.3 mg/kg turned out to be 18% in data set [1] and 20% in data set [2]. Further, the EC50 in data set [3] is 0.5 to 1 nM. The “Rat Embryofetal @6 mpk” value in data set [4] is “Positive”.

With `CO[C@@H]1[C@H](OC(=O)N2CCC3(COC3)C2)CC[C@]2(CO2)[C@H]1[C@@]1(C)O[C@@H]1CC=C(C)C` [Example 4, (3R,4S,5S,6R)-5-methoxy-4-((2R,3R)-2-methyl-3-(3-methylbut-2-en-1-yl)oxiran-2-yl)-1-oxaspiro[2.5]octan-6-yl 2-oxa-6-azaspiro[3.4]octane-6-carboxylate], on recombinant human MetAP2, the IC50 is less than 50 nM. In data set [1], this compound registered an inhibition in vivo at 0.3 mg/kg of 15.4%. In data set [3], this compound returned an EC50 of less than 0.5 nM. Also, the “Rat Embryofetal @6 mpk” value in data set [4] was “Negative”.

As usually defined, the inhibition in vivo is the percentage by which the read-out fell short of the control. One may read the EC50 as the concentration that produces a half-maximal response. High values mean weaker potency, low ones greater potency. The IC50 is the midpoint of a concentration-inhibition curve.
